Test system: OCI-AML3 cells
Experiment: In vitro proliferation (Cell Titer Glo, 6 days) of Compound 51 in combination with idarubicin or decitabine, OCI-AML3
Type: cell-based, human
Details: for combination effect on proliferation (cytotoxicity): OCI-AML3 (NPM1c)
Protocol: 3) In Vitro Proliferation—Menin-MLL Inhibitor in Combination with FLT3 Inhibitor (Gilteritinib or Midostaurin), DNA Intercalating Agent (Idarubicin) or Hypomethylating Agent (Decitabine)
The effect of Compound 51 in combination with gilteritinib, midostaurin, idarubicin or decitabine was determined in proliferation assays.
AML cell lines MOLM-13, OCI-AML3 and MV4-11 were purchased from DSMZ. MOLM-13 were grown in RPMI medium supplemented with 10% Fetal Bovine Serum (FBS) and 1% penicillin/streptomycin. MV4-11 cells were grown in IMDM medium supplemented with 10% FBS and 1% penicillin/streptomycin. OCI-AML3 cells were cultured in 80-90% alpha-MEM (with or without ribo- and deoxyribonucleosides)+10-20% FBS. All cell lines were cultured at 37° C. in 5% CO2 atmosphere.
AML cell lines (10-20×10^3 cells/well) were seeded in 96-well plates and grown for 6 days in serum (10%)-containing medium in the presence or absence of inhibitors at the indicated concentrations. Proliferation was analyzed by means of a Cell Titer Glo assay using the […] (Promega, Madison, WI, USA), according to the manufacturer's instructions. Data are mean with standard deviation from two to four independent experiments in technical triplicates.
R-based Biochemically Intuitive Generalized Loewe (BIGL) model implemented with a highest single agent (HSA) null model. Specifically, the BIGL methodology was applied to calculate drug-drug interactions (Van der Borght, K., Tourny, A., Bagdziunas, R. et al. BIGL: Biochemically Intuitive Generalized Loewe null model for prediction of the expected combined effect compatible with partial agonism and antagonism. Sci Rep 7, 17935 (2017); Thas, O., Tourny, A., Verbist, B., Hawinkel, S., Nazarov, M., Mutambanengwe, K., & Bijnens, L. Statistical detection of synergy: New methods and a comparative study. Pharmaceutical Statistics (2021)).
Synergy matrix results of the BIGL analysis of the cell line data with HSA as mean model calculated on the basis of the cellular metabolic activity using Cell Titer-Glo assay. Bootstrap confidence intervals are indicated. Effect sizes and their confidence intervals are shown. […] No significant average effect if zero is included in the interval.

In the case of `CC(=O)N1CCC(CN2CC[C@@H](Cc3cn(-c4ccc(F)cc4C(=O)N(C)C(C)C)c4cncc(C)c34)C2)CC1` [Compound 51], the “Effect size (BIGL, HSA null model), OCI-AML3 Cell Proliferation” value (shortened to “Effect size (BIGL, HSA null model)”) (Compound 51 0.001 μm + Decitabine 0.0015 μM) is reported as −0.02, the “Effect size (BIGL, HSA null model)” value (Compound 51 0.001 μm + Decitabine 0.015 μM) is reported as −0.06 and the “Effect size (BIGL, HSA null model)” value (Compound 51 0.001 μm + Decitabine 0.35 μM) is reported as −0.04. The “Effect size (BIGL, HSA null model)” value (Compound 51 0.001 μm + Decitabine 3 μM) was 0.01, the “Effect size (BIGL, HSA null model)” value (Compound 51 0.001 μm + Decitabine 3.5 μM) was −0.02 and the “Effect size (BIGL, HSA null model)” value (Compound 51 0.001 μm + Idarubicin 0.0005 μM) was −0.02. For the same molecule, the “Effect size (BIGL, HSA null model)” value (Compound 51 0.001 μm + Idarubicin 0.00625 μM) was 0, the “Effect size (BIGL, HSA null model)” value (Compound 51 0.001 μm + Idarubicin 0.0125 μM) was 0.02 and the “Effect size (BIGL, HSA null model)” value (Compound 51 0.001 μm + Idarubicin 0.025 μM) was 0. The “Effect size (BIGL, HSA null model)” value (Compound 51 0.001 μm + Idarubicin 0.05 μM) was −0.01, the “Effect size (BIGL, HSA null model)” value (Compound 51 0.001 μm + Idarubicin 0.5 μM) was −0.01 and the “Effect size (BIGL, HSA null model)” value (Compound 51 0.01 μm + Decitabine 0.0015 μM) was −0.01. The “Effect size (BIGL, HSA null model)” value (Compound 51 0.01 μm + Decitabine 0.015 μM) was −0.1, the “Effect size (BIGL, HSA null model)” value (Compound 51 0.01 μm + Decitabine 0.35 μM) was −0.07 and the “Effect size (BIGL, HSA null model)” value (Compound 51 0.01 μm + Decitabine 3 μM) was 0. For the same molecule, the “Effect size (BIGL, HSA null model)” value (Compound 51 0.01 μm + Decitabine 3.5 μM) was −0.02, the “Effect size (BIGL, HSA null model)” value (Compound 51 0.01 μm + Idarubicin 0.0005 μM) was 0.05 and the “Effect size (BIGL, HSA null model)” value (Compound 51 0.01 μm + Idarubicin 0.00625 μM) was −0.02. The “Effect size (BIGL, HSA null model)” value (Compound 51 0.01 μm + Idarubicin 0.0125 μM) was 0.01, the “Effect size (BIGL, HSA null model)” value (Compound 51 0.01 μm + Idarubicin 0.025 μM) was 0 and the “Effect size (BIGL, HSA null model)” value (Compound 51 0.01 μm + Idarubicin 0.05 μM) was −0.01. For the same molecule, the “Effect size (BIGL, HSA null model)” value (Compound 51 0.01 μm + Idarubicin 0.5 μM) was −0.01, the “Effect size (BIGL, HSA null model)” value (Compound 51 0.05 μm + Decitabine 0.0015 μM) was 0 and the “Effect size (BIGL, HSA null model)” value (Compound 51 0.05 μm + Decitabine 0.015 μM) was 0. The “Effect size (BIGL, HSA null model)” value (Compound 51 0.05 μm + Decitabine 0.35 μM) was −0.1, the “Effect size (BIGL, HSA null model)” value (Compound 51 0.05 μm + Decitabine 3 μM) was 0 and the “Effect size (BIGL, HSA null model)” value (Compound 51 0.05 μm + Decitabine 3.5 μM) was −0.03. The “Effect size (BIGL, HSA null model)” value (Compound 51 0.05 μm + Idarubicin 0.0005 μM) was 0.04, the “Effect size (BIGL, HSA null model)” value (Compound 51 0.05 μm + Idarubicin 0.00625 μM) was −0.04 and the “Effect size (BIGL, HSA null model)” value (Compound 51 0.05 μm + Idarubicin 0.0125 μM) was 0. The “Effect size (BIGL, HSA null model)” value (Compound 51 0.05 μm + Idarubicin 0.025 μM) was −0.01, the “Effect size (BIGL, HSA null model)” value (Compound 51 0.05 μm + Idarubicin 0.05 μM) was −0.01 and the “Effect size (BIGL, HSA null model)” value (Compound 51 0.05 μm + Idarubicin 0.5 μM) was −0.01. For the same molecule, the “Effect size (BIGL, HSA null model)” value (Compound 51 0.1 μm + Decitabine 0.0015 μM) was 0.01, the “Effect size (BIGL, HSA null model)” value (Compound 51 0.1 μm + Decitabine 0.015 μM) was 0.08 and the “Effect size (BIGL, HSA null model)” value (Compound 51 0.1 μm + Decitabine 0.35 μM) was −0.07. The “Effect size (BIGL, HSA null model)” value (Compound 51 0.1 μm + Decitabine 3 μM) was 0, the “Effect size (BIGL, HSA null model)” value (Compound 51 0.1 μm + Decitabine 3.5 μM) was −0.02 and the “Effect size (BIGL, HSA null model)” value (Compound 51 0.1 μm + Idarubicin 0.0005 μM) was 0.01. The “Effect size (BIGL, HSA null model)” value (Compound 51 0.1 μm + Idarubicin 0.00625 μM) was −0.05, the “Effect size (BIGL, HSA null model)” value (Compound 51 0.1 μm + Idarubicin 0.0125 μM) was 0 and the “Effect size (BIGL, HSA null model)” value (Compound 51 0.1 μm + Idarubicin 0.025 μM) was 0. For the same molecule, the “Effect size (BIGL, HSA null model)” value (Compound 51 0.1 μm + Idarubicin 0.05 μM) was −0.01, the “Effect size (BIGL, HSA null model)” value (Compound 51 0.1 μm + Idarubicin 0.5 μM) was −0.01 and the “Effect size (BIGL, HSA null model)” value (Compound 51 1 μm + Decitabine 0.0015 μM) was 0.02. The “Effect size (BIGL, HSA null model)” value (Compound 51 1 μm + Decitabine 0.015 μM) was 0.13, the “Effect size (BIGL, HSA null model)” value (Compound 51 1 μm + Decitabine 0.35 μM) was 0.01 and the “Effect size (BIGL, HSA null model)” value (Compound 51 1 μm + Decitabine 3 μM) was 0. For the same molecule, the “Effect size (BIGL, HSA null model)” value (Compound 51 1 μm + Decitabine 3.5 μM) was −0.02, the “Effect size (BIGL, HSA null model)” value (Compound 51 1 μm + Idarubicin 0.0005 μM) was −0.03 and the “Effect size (BIGL, HSA null model)” value (Compound 51 1 μm + Idarubicin 0.00625 μM) was −0.06. For the same molecule, the “Effect size (BIGL, HSA null model)” value (Compound 51 1 μm + Idarubicin 0.0125 μM) was 0, the “Effect size (BIGL, HSA null model)” value (Compound 51 1 μm + Idarubicin 0.025 μM) was −0.01 and the “Effect size (BIGL, HSA null model)” value (Compound 51 1 μm + Idarubicin 0.05 μM) was −0.01. For the same molecule, the “Effect size (BIGL, HSA null model)” value (Compound 51 1 μm + Idarubicin 0.5 μM) was −0.01, the “Effect size (BIGL, HSA null model)” value (Compound 51 10 μm + Decitabine 0.0015 μM) was 0.01 and the “Effect size (BIGL, HSA null model)” value (Compound 51 10 μm + Decitabine 0.015 μM) was 0.1. The “Effect size (BIGL, HSA null model)” value (Compound 51 10 μm + Decitabine 0.35 μM) was −0.02, the “Effect size (BIGL, HSA null model)” value (Compound 51 10 μm + Decitabine 3 μM) was 0.01 and the “Effect size (BIGL, HSA null model)” value (Compound 51 10 μm + Decitabine 3.5 μM) was −0.01. The “Effect size (BIGL, HSA null model)” value (Compound 51 10 μm + Idarubicin 0.0005 μM) was 0.04, the “Effect size (BIGL, HSA null model)” value (Compound 51 10 μm + Idarubicin 0.00625 μM) was −0.06 and the “Effect size (BIGL, HSA null model)” value (Compound 51 10 μm + Idarubicin 0.0125 μM) was 0. The “Effect size (BIGL, HSA null model)” value (Compound 51 10 μm + Idarubicin 0.025 μM) was −0.01, the “Effect size (BIGL, HSA null model)” value (Compound 51 10 μm + Idarubicin 0.05 μM) was −0.01 and the “Effect size (BIGL, HSA null model)” value (Compound 51 10 μm + Idarubicin 0.5 μM) was −0.01. The “combination effect on proliferation (cytotoxicity)” value (in combination with decitabine, 6-day CellTiter-Glo matrix) was “not antagonistically cytotoxic” and the “combination effect on proliferation (cytotoxicity)” value (in combination with idarubicin, 6-day Cell Titer-Glo matrix) was “not antagonistically cytotoxic”.

Reference: US20260191835A1, “COMBINATIONS COMPRISING A MENIN-MLL INHIBITOR AND AT LEAST ONE OTHER THERAPEUTIC AGENT” (JANSSEN PHARMACEUTICA NV, priority 2022, published 2026)
